Measured values taken from ChEMBL document CHEMBL4196074, “Metallomics for Alzheimer's disease treatment: Use of new generation of chelators combining metal-cation binding and transport properties” (Eur J Med Chem, 2018).
Activity calls are given as the source filed them. Unless noted, the rule behind the calls is not given here.

Assays:
[1] = system: SH-SY5Y; assay: Antiproliferative activity against human SH-SY5Y cells at 1 uM after 24 to 72 hrs by WST1 assay; format: cell-based
[2] = system: SH-SY5Y; assay: Inhibition of Cu2+-mediated amyloid beta (1 to 42 residues) production in human SH-SY5Y cells expressing APPswe mutant at 1 uM after 72 hrs by ELISA based spectrophotometric analysis; format: cell-based
[3] = system: SH-SY5Y; assay: Inhibition of Cu2+-induced caspase-3 activity in human SH-SY5Y cells expressing APPswe mutant at 1 uM after 72 hrs by AcDEVD substrate-based spectrophotometric analysis; format: cell-based
[4] = system: SH-SY5Y; assay: Inhibition of Cu2+-induced toxicity in human SH-SY5Y cells expressing APPswe mutant assessed as increase in cell viability at 1 uM after 72 hrs by WST1 assay; format: cell-based
[5] = system: SH-SY5Y; assay: Inhibition of Cu2+-mediated ROS generation in human SH-SY5Y cells expressing APPswe mutant at 1 uM after 72 hrs by DCF-DA dye-based fluorescence spectroscopic analysis; format: cell-based
[6] = system: SH-SY5Y; assay: Inhibition of Fe3+-mediated amyloid beta (1 to 42 residues) production in human SH-SY5Y cells expressing APPswe mutant at 1 uM after 72 hrs by ELISA based spectrophotometric analysis; format: cell-based
[7] = Metal chelating activity assessed as compound-Zn2+ complex formation by UV-vis spectrophotometric analysis
[8] = system: SH-SY5Y; assay: Inhibition of Fe3+-mediated ROS generation in human SH-SY5Y cells expressing APPswe mutant at 1 uM after 72 hrs by DCF-DA dye-based fluorescence spectroscopic analysis; format: cell-based
[9] = system: SH-SY5Y; assay: Inhibition of Fe3+-induced toxicity in human SH-SY5Y cells expressing APPswe mutant assessed as increase in cell viability at 1 uM after 72 hrs by WST1 assay; format: cell-based
[10] = Metal chelating activity assessed as compound-Fe3+ complex formation by UV-vis spectrophotometric analysis
[11] = biological target: Acetylcholinesterase (Homo sapiens) (UniProt P22303); assay: Inhibition of acetylcholinesterase (unknown origin) at 1 uM using acetylthiocholine chloride as substrate measured for 5 to 40 mins
Chain of Acetylcholinesterase (Homo sapiens) (P22303 whole entry): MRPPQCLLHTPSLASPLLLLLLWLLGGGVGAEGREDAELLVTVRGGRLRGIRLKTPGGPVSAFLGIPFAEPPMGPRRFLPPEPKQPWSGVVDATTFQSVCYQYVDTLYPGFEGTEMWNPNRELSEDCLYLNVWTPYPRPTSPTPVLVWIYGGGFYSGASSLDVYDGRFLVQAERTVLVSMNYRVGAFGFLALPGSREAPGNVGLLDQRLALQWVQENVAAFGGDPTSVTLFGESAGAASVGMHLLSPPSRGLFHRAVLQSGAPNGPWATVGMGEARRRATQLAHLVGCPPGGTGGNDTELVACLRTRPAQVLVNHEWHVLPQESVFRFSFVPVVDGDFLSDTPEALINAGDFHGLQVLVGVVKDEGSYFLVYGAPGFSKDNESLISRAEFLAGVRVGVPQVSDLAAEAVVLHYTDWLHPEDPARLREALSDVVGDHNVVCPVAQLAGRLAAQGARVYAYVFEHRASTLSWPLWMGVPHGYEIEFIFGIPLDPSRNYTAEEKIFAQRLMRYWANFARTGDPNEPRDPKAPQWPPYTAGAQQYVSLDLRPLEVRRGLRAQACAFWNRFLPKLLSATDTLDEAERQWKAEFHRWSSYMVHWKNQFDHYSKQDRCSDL

[12] = Metal chelating activity assessed as compound-Cu2+ complex formation by UV-vis spectrophotometric analysis
[13] = system: SH-SY5Y; assay: Neuroprotective activity against amyloid beta (1 to 42 residues) induced cell death in human SH-SY5Y cells expressing APPswe mutant at 1 uM after 48 hrs by WST1 assay; format: functional, cell-based
[14] = system: SH-SY5Y; assay: Inhibition of Fe3+-induced caspase-3 activity in human SH-SY5Y cells expressing APPswe mutant at 1 uM after 72 hrs by AcDEVD substrate-based spectrophotometric analysis; format: cell-based
[15] = system: SH-SY5Y; assay: Effect on morphological changes in human SH-SY5Y cells expressing APPswe mutant assessed as alteration of cell shape at 1 uM after 72 hrs; format: ADME, cell-based
[16] = system: SH-SY5Y; assay: Effect on morphological changes in human SH-SY5Y cells expressing APPswe mutant assessed as decrease in adherent cell number at 1 uM after 72 hrs; format: ADME, cell-based
[17] = system: SH-SY5Y; assay: Inhibition of Zn2+-mediated ROS generation in human SH-SY5Y cells expressing APPswe mutant at 1 uM after 72 hrs by DCF-DA dye-based fluorescence spectroscopic analysis; format: cell-based
[18] = system: SH-SY5Y; assay: Inhibition of Zn2+-mediated amyloid beta (1 to 42 residues) production in human SH-SY5Y cells expressing APPswe mutant at 1 uM after 72 hrs by ELISA based spectrophotometric analysis; format: cell-based
[19] = system: SH-SY5Y; assay: Inhibition of Zn2+-induced toxicity in human SH-SY5Y cells expressing APPswe mutant assessed as increase in cell viability at 1 uM after 72 hrs by WST1 assay; format: cell-based
[20] = system: SH-SY5Y; assay: Inhibition of Zn2+-induced caspase-3 activity in human SH-SY5Y cells expressing APPswe mutant at 1 uM after 72 hrs by AcDEVD substrate-based spectrophotometric analysis; format: cell-based
[21] = Effective permeability of the compound at 10^-5 mol/L after 5 hrs by UV-based PAMPA; format: ADME; details: read-out: Peff
[22] = Effective permeability of the compound at pH 7.4 at 200 uM after 4 hrs by PAMPA-BBB assay; format: ADME; details: read-out: Peff

| Structure (SMILES) | Activity [1] | inhibition [2] | inhibition [3] | inhibition [4] | inhibition [5] | inhibition [6] | Activity [7] | inhibition [8] | inhibition [9] | Activity [10] | inhibition [11] | Activity [12] | Activity [13] | inhibition [14] | other results |
| --- | --- | --- | --- | --- | --- | --- | --- | --- | --- | --- | --- | --- | --- | --- | --- |
| C[C@H](CCC(=O)N/N=C/c1ccc(C(C)(C)C)cc1O)[C@H]1CC[C@H]2[C@@H]3[C@H](O)C[C@@H]4C[C@H](O)CC[C@]4(C)[C@H]3C[C@H](O)[C@]12C | Non-Toxic | inactive | Active | Active | Active | inactive | inactive | Active | Active | Active | inactive | Active | Active | Active |  |
| COc1ccc(Nc2c(NN=C(c3ccccn3)c3ccccn3)c(=O)c2=O)cc1 | Non-Toxic | Active |  |  | Active | Active | inactive | Active |  | Active | inactive | Active | inactive |  | Activity [15]: Toxic; Activity [16]: Toxic |
| C[C@H](CCC(=O)N/N=C/c1ccc2ccccc2n1)[C@H]1CC[C@H]2[C@@H]3[C@H](O)C[C@@H]4C[C@H](O)CC[C@]4(C)[C@H]3C[C@H](O)[C@]12C | Non-Toxic | inactive | Active | Active | Active | inactive | inactive | Active | Active | Active | inactive | Active | Active | Active |  |
| C[C@H](CCC(=O)NN=C(c1ccccn1)c1ccccn1)[C@H]1CC[C@H]2[C@@H]3[C@H](O)C[C@@H]4C[C@H](O)CC[C@]4(C)[C@H]3C[C@H](O)[C@]12C | Non-Toxic | Active | Active | Active |  | Active | inactive |  | Active | Active | inactive | Active | Active | Active |  |
| CCN1/C(=C/c2c(NN=C(c3ccccn3)c3ccccn3)c(=O)c2=O)Sc2ccccc21 | Non-Toxic | Active |  |  | Active | Active | Active | Active |  | Active | inactive | Active | inactive |  | Activity [15]: Toxic; inhibition [17]: Active; inhibition [18]: Active; Activity [16]: Toxic |
| Cc1ncc(CO)c(/C=N/NC(=O)CC[C@@H](C)[C@H]2CC[C@H]3[C@@H]4[C@H](O)C[C@@H]5C[C@H](O)CC[C@]5(C)[C@H]4C[C@H](O)[C@]23C)c1O | Non-Toxic | inactive | Active | Active | Active | inactive | Active | Active | Active | Active | inactive | Active | Active | Active | inhibition [19]: Active; inhibition [17]: Active; inhibition [18]: inactive; inhibition [20]: Active; Papp at 5 h, 10 µM [21]: 7.5 ×10⁻⁶ cm/s |
| CC(C)NCC(O)COc1cccc2ccccc12 (stereo unspecified) [PROPRANOLOL] |  |  |  |  |  |  |  |  |  |  |  |  |  |  | Papp at 4 h, 200 µM [22]: 10.3 ×10⁻⁶ cm/s |
